Measured values as given in ChEMBL document CHEMBL2086309, “Discovery of liver selective non-steroidal glucocorticoid receptor antagonist as novel antidiabetic agents” (Bioorg Med Chem Lett, 2012).
pIC50: −log10 of the molar value. One block for each compound: values may come before it.

Columns and labels:
Glucocorticoid receptor [1] = biological target: T1, Glucocorticoid receptor (Homo sapiens, UniProt P04150); assay: Displacement of [3H]dexamethasone from human glucocorticoid receptor expressed in baculovirus infected Sf9 cells after overnight incubation by scintillation counting
T1 sequence (P04150 whole entry): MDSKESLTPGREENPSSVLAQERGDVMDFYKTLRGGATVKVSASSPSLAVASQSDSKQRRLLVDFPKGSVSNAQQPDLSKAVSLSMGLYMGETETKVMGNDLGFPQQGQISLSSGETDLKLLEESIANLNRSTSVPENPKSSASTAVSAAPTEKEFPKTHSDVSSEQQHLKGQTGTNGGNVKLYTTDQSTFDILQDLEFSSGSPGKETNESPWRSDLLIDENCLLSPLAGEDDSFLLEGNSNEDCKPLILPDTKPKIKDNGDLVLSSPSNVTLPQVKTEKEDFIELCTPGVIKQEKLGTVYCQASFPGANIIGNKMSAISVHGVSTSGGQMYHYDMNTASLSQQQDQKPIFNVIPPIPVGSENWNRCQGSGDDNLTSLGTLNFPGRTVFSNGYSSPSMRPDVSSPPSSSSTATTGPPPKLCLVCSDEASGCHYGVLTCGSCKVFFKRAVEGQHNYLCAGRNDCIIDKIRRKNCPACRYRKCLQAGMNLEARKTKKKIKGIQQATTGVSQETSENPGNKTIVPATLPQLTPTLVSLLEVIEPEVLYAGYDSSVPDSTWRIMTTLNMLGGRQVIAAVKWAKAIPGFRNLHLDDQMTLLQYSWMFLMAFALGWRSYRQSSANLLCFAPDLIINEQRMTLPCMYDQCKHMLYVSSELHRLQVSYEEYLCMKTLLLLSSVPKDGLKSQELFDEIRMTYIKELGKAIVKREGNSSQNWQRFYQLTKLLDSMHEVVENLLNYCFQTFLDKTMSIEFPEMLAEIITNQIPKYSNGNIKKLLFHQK

Glucocorticoid receptor [2] = biological target: T1, Glucocorticoid receptor; assay: Antagonist activity at human glucocorticoid receptor expressed in GRAF cells assessed as inhibition of dexamethasone-induced alkaline phosphatase expression after 48 hrs by reporter gene assay; format: functional, cell-based
Glucocorticoid receptor [3] = biological target: T2, Glucocorticoid receptor (Rattus norvegicus, UniProt P06536); assay: Antagonist activity at glucocorticoid receptor in rat hepatocytes assessed as inhibition of dexamethasone-induced […] expression incubated for 30 mins prior to dexamethasone-induction measured after 4 hrs by reporter gene assay; format: functional, cell-based, Hepatocyte
T2 sequence (P06536 whole entry): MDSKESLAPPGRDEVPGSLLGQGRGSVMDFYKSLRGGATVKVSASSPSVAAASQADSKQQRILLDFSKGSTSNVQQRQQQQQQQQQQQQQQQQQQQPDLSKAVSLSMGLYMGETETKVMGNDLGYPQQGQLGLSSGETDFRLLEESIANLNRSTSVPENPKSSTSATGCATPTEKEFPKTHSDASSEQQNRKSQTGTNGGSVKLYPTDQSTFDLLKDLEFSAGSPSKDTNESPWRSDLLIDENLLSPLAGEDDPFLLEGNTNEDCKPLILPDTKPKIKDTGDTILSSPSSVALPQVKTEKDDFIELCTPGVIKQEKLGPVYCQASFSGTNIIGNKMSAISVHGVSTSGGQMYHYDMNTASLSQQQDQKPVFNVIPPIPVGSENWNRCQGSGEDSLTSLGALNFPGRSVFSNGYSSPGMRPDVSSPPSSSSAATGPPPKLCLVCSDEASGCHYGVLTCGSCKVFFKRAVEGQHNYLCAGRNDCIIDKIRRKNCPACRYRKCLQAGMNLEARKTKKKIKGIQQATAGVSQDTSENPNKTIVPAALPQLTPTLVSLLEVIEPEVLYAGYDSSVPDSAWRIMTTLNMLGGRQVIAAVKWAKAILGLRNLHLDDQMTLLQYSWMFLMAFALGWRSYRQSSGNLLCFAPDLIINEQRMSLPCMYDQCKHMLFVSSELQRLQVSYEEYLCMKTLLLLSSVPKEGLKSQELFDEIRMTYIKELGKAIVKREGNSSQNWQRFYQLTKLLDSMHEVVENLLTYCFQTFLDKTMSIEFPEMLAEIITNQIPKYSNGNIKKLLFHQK

[4] = Tmax in Sprague-Dawley rat at 20 mg/kg, po administered as single dose; format: ADME, organism-based; design: dose 20 mg/kg, route oral; conditions: in vivo
[5] = Cmax in Sprague-Dawley rat at 20 mg/kg, po administered as single dose; format: ADME, organism-based; design: dose 20 mg/kg, route oral; conditions: in vivo
[6] = Half life in Sprague-Dawley rat at 20 mg/kg, po administered as single dose; format: ADME, organism-based; design: dose 20 mg/kg, route oral; conditions: in vivo
[7] = AUC (0 to infinity) in Sprague-Dawley rat at 20 mg/kg, po administered as single dose; format: ADME, organism-based; design: time infinity, dose 20 mg/kg, route oral; conditions: plasma
[8] = AUC in Sprague-Dawley rat at 20 mg/kg, iv administered as single dose; format: ADME, organism-based; design: dose 20 mg/kg, route intravenous; conditions: plasma
[9] = Oral bioavailability in Sprague-Dawley rat; format: ADME, organism-based; conditions: in vivo
[10] = Drug uptake in Sprague-Dawley rat liver at 20 mg/kg, po administered as single dose measured at 0.5 hrs; format: ADME, organism-based; design: dose 20 mg/kg, route oral; conditions: read-out: Drug uptake
[11] = Ratio of drug uptake in liver to plasma in Sprague-Dawley rat at 20 mg/kg, po administered as single dose; format: ADME, organism-based; design: dose 20 mg/kg, route oral
Mus musculus [12] = assay: Antidiabetic activity in po dosed ob/ob mouse assessed as decrease in post-prandial blood glucose level administered BID for 28 days measured 16 hrs post-last dose; format: functional, organism-based
Mus musculus [13] = assay: Antidiabetic activity in ob/ob mouse assessed as decrease in post-prandial blood glucose level at 10 mg/kg, po administered BID for 28 days measured 16 hrs post-last dose relative to vehicle-treated control; format: functional; design: scale not given: the % may be the effect or the level left
Mus musculus [14] = assay: Antidiabetic activity in ob/ob mouse assessed as decrease in post-prandial blood glucose level at 20 mg/kg, po administered BID for 28 days measured 16 hrs post-last dose relative to vehicle-treated control; format: functional; design: scale not given: the % may be the effect or the level left
Mus musculus [15] = assay: Antidiabetic activity in ob/ob mouse assessed as insulin level at 10 mg/kg, po administered BID for 28 days measured 16 hrs post-last dose by ELISA (reference value: 13.6+/-2.3 ng/mL); format: functional
Mus musculus [16] = assay: Antidiabetic activity in ob/ob mouse assessed as insulin level at 20 mg/kg, po administered BID for 28 days measured 16 hrs post-last dose by ELISA (reference value: 13.6+/-2.3 ng/mL); format: functional
Mus musculus [17] = assay: Antidiabetic activity in ob/ob mouse assessed as Hb1Ac level at 10 mg/kg, po administered BID for 28 days measured 16 hrs post-last dose (reference value: 9.3+/-0.4%); format: functional
Mus musculus [18] = assay: Antidiabetic activity in ob/ob mouse assessed as Hb1Ac level at 20 mg/kg, po administered BID for 28 days measured 16 hrs post-last dose (reference value: 9.3+/-0.4%); format: functional
Mus musculus [19] = assay: Antihyperlipidemic activity in ob/ob mouse assessed as triglyceride level at 10 mg/kg, po administered BID for 28 days measured 16 hrs post-last dose (reference value: 292.5+/-17.5 mg/dL); format: functional
Mus musculus [20] = assay: Antihyperlipidemic activity in ob/ob mouse assessed as triglyceride level at 20 mg/kg, po administered BID for 28 days measured 16 hrs post-last dose (reference value: 292.5+/-17.5 mg/dL); format: functional
Mus musculus [21] = assay: Antihyperlipidemic activity in ob/ob mouse assessed as free fatty acid level at 10 mg/kg, po administered BID for 28 days measured 16 hrs post-last dose (reference value: 1.96+/-0.09 mEq/L); format: functional
Mus musculus [22] = assay: Antihyperlipidemic activity in ob/ob mouse assessed as free fatty acid level at 20 mg/kg, po administered BID for 28 days measured 16 hrs post-last dose (reference value: 1.96+/-0.09 mEq/L); format: functional
Mus musculus [23] = assay: Antihyperlipidemic activity in ob/ob mouse assessed as cholesterol level at 10 mg/kg, po administered BID for 28 days measured 16 hrs post-last dose (reference value: 331.2+/-17.9 mg/dL); format: functional
Mus musculus [24] = assay: Antihyperlipidemic activity in ob/ob mouse assessed as cholesterol level at 20 mg/kg, po administered BID for 28 days measured 16 hrs post-last dose (reference value: 331.2+/-17.9 mg/dL); format: functional
Mus musculus [25] = assay: Toxicity in ob/ob mouse assessed as change in body weight at 10 mg/kg, po administered BID for 28 days (reference value: 11.7+/-1.1 g); format: organism-based; design: dose 10 mg/kg, route oral; conditions: in vivo, 672 h
Mus musculus [26] = assay: Toxicity in ob/ob mouse assessed as change in body weight at 20 mg/kg, po administered BID for 28 days (reference value: 11.7+/-1.1 g); format: organism-based; design: dose 20 mg/kg, route oral; conditions: in vivo, 672 h
Mus musculus [27] = assay: Hepatotoxicity in ob/ob mouse assessed as AST level at 10 mg/kg, po administered BID for 28 days measured st 16 hrs post-last dose (reference value: 332.2+/-39.1 U/L); format: toxicity, organism-based; design: dose 10 mg/kg, route oral; conditions: in vivo
Mus musculus [28] = assay: Hepatotoxicity in ob/ob mouse assessed as AST level at 20 mg/kg, po administered BID for 28 days measured st 16 hrs post-last dose (reference value: 332.2+/-39.1 U/L); format: toxicity, organism-based; design: dose 20 mg/kg, route oral; conditions: in vivo
Rattus norvegicus [29] = assay: Activation of hyphalamic-pituitary-adrenal axis in Sprague-Dawley rat assessed as change in ACTH level at 100 mg/kg, po administered as single dose measured at 2 hrs by ELISA relative to vehicle-treated control; format: organism-based; design: dose 100 mg/kg, route oral; conditions: in vivo
Rattus norvegicus [30] = assay: Activation of hyphalamic-pituitary-adrenal axis in Sprague-Dawley rat assessed as change in corticosterone level at 100 mg/kg, po administered as single dose measured at 2 hrs relative to vehicle-treated control; format: organism-based; design: dose 100 mg/kg, route oral; conditions: in vivo
Mus musculus [31] = assay: Hepatotoxicity in ob/ob mouse assessed as ALT level at 10 mg/kg, po administered BID for 28 days measured st 16 hrs post-last dose (reference value: 259.4+/-18.6 U/L); format: toxicity, organism-based; design: dose 10 mg/kg, route oral; conditions: in vivo
Mus musculus [32] = assay: Hepatotoxicity in ob/ob mouse assessed as ALT level at 20 mg/kg, po administered BID for 28 days measured st 16 hrs post-last dose (reference value: 259.4+/-18.6 U/L); format: toxicity, organism-based; design: dose 20 mg/kg, route oral; conditions: in vivo

pIC50 (Glucocorticoid receptor [1]): 5.78
SMILES: Cc1ccc(Oc2ccc(CN(Cc3cc(F)cc(F)c3)c3c(Br)cc(CC(=O)O)cc3Br)cc2)c(C)c1

pIC50 (Glucocorticoid receptor [1]): 6.84 | pIC50 (Glucocorticoid receptor [2]): 7.34 | pIC50 (Glucocorticoid receptor [3]): 5.68
SMILES: O=C(O)Cc1cc(Br)c(N(Cc2ccc(Oc3ccccc3F)cc2)Cc2cc(F)cc(F)c2)c(Br)c1

pIC50 (Glucocorticoid receptor [1]): < 5.00
SMILES: c1ccc(CN(Cc2ccc(Oc3ccccc3)cc2)c2ccccc2)cc1

pIC50 (Glucocorticoid receptor [1]): < 5.05
SMILES: O=C(O)c1ccc(N(Cc2ccccc2)Cc2ccc(Oc3ccccc3)cc2)cc1

pIC50 (Glucocorticoid receptor [1]): 5.92
SMILES: O=C(O)Cc1cc(Br)c(N(Cc2ccccc2)Cc2ccc(Oc3ccccc3)cc2)c(Br)c1

pIC50 (Glucocorticoid receptor [1]): 6.14 | pIC50 (Glucocorticoid receptor [2]): 5.98 | pIC50 (Glucocorticoid receptor [3]): 5.41
SMILES: O=C(O)Cc1cc(Br)c(N(Cc2ccc(Oc3ccccc3)cc2)Cc2cc(F)cc(F)c2)c(Br)c1

pIC50 (Glucocorticoid receptor [1]): 6.10 | pIC50 (Glucocorticoid receptor [2]): 5.93 | pIC50 (Glucocorticoid receptor [3]): < 5.00
SMILES: O=C(O)Cc1cc(Br)c(N(Cc2ccc(Oc3ccccc3Br)cc2)Cc2cc(F)cc(F)c2)c(Br)c1

pIC50 (Glucocorticoid receptor [1]): 8.35 | pIC50 (Glucocorticoid receptor [2]): 6.68 | pIC50 (Glucocorticoid receptor [3]): 6.05 | Tmax [4]: 0.51 h | Cmax [5]: 880 ng/mL | half-life [6]: 5.96 h | AUC(0-inf) [7]: 1390 ng·h/mL | AUC [8]: 13000 ng·h/mL | bioavailability [9]: 10.7% | concentration at 0.5 h [10]: 21800 ng/mL | Kp [11]: 24.8
SMILES: O=C(O)Cc1cc(Br)c(N(Cc2ccc(Oc3ccc(F)cc3F)cc2)Cc2cc(F)cc(F)c2)c(Br)c1
Activity (Mus musculus [12]): Dose-dependent effect | Activity (Mus musculus [13]): 32% | Activity (Mus musculus [14]): 42% | Activity (Mus musculus [15]): 14.1 ng/mL | Activity (Mus musculus [16]): 12.3 ng/mL | Activity (Mus musculus [17]): 6.7% | Activity (Mus musculus [18]): 6% | Activity (Mus musculus [19]): 214.3 mg/dL | Activity (Mus musculus [20]): 173.5 mg/dL | Activity (Mus musculus [21]): 1.32 mEq/L | Activity (Mus musculus [22]): 1.17 mEq/L | Activity (Mus musculus [23]): 266.6 mg/dL | Activity (Mus musculus [24]): 219.5 mg/dL | Activity (Mus musculus [25]): 11.9 g | Activity (Mus musculus [26]): 10.9 g | Activity (Mus musculus [27]): 345.3 U/L | Activity (Mus musculus [28]): 353.2 U/L | Activity (Rattus norvegicus [29]): Non-toxic | Activity (Rattus norvegicus [30]): Non-toxic | Activity (Mus musculus [31]): 261 U/L | Activity (Mus musculus [32]): 247.5 U/L

pIC50 (Glucocorticoid receptor [1]): 5.90
SMILES: COc1ccccc1Oc1ccc(CN(Cc2cc(F)cc(F)c2)c2c(Br)cc(CC(=O)O)cc2Br)cc1

pIC50 (Glucocorticoid receptor [1]): 6.06 | pIC50 (Glucocorticoid receptor [2]): 5.85 | pIC50 (Glucocorticoid receptor [3]): < 5.00
SMILES: O=C(O)Cc1cc(Br)c(N(Cc2ccc(Oc3ccc(Br)cc3Br)cc2)Cc2cc(F)cc(F)c2)c(Br)c1
